Values of other authors as cited in patent US7659260B2, “Tamponade compositions and methods for retinal repair” (priority 2005, dated 2010).

How the values were obtained:
[1] = reportedly; unless ingested in very large amounts
[2] = at 25° C.

relative density [2]: 1.1044
SMILES: [2H]O[2H] [Heavy water, deuterium-containing heavy water (D2O)]
toxicity [1]: non-toxic, unless ingested in very large amounts
